How the values were obtained:
[1] = test system: G4 Myc (fluorescence quench) (DNA, G4) TGGGGAGGGTGGGGAGGGTGGGGAAGG; assay: fluorescence quench binding assay; details: 150 mM KCl; for Kd: 50 mM Tris HCl pH 7.2, 0.5% CHAPS, 0.05% Triton X-100, apparent, 9 nM DNA
[2] = test system: G4 Telo (fluorescence quench) (DNA, G4) AGGGTTAGGGTTAGGGTTAGGGT; assay: fluorescence quench binding assay; details: 150 mM KCl; for Kd: 50 mM Tris HCl pH 7.2, 0.5% CHAPS, 0.05% Triton X-100, apparent, 9 nM DNA
[3] = test system: G4 Myc (FRET) (DNA, G4) TGAGGGTGGGTAGGGTGGGTAA; assay: FRET melting; details: 60 mM potassium cacodylate; pH 7.4; 1 µM compound, 200 nM DNA
[4] = test system: G4 Telo (FRET) (DNA, G4) GGGTTAGGGTTAGGGTTAGGG; assay: FRET melting; details: 60 mM potassium cacodylate; pH 7.4; 1 µM compound, 200 nM DNA
[5] = test system: dsDNA (FRET) (DNA, hairpin, hexaethylene glycol (HEG, [(-CH2CH2O-)6]) linker between nucleotides 10 and 11) TATAGCTATATATAGCTATA; assay: FRET melting; details: 60 mM potassium cacodylate; pH 7.4; increasing compound concentration up to 3 µM, 200 nM DNA
[6] = test system: G4 Kit1 (fluorescence quench) (DNA, G4) AGGGAGGGCGCTGGGAGGAGGG; assay: fluorescence quench binding assay; details: 150 mM KCl; for Kd: 50 mM Tris HCl pH 7.2, 0.5% CHAPS, 0.05% Triton X-100, apparent, 9 nM DNA
[7] = test system: G4 Kit1 (FRET) (DNA, G4) GGGAGGGCGCTGGGAGGAGGG; assay: FRET melting; details: 60 mM potassium cacodylate; pH 7.4; increasing compound concentration up to 3 µM, 200 nM DNA
[8] = test system: dsDNA (fluorescence quench) (DNA, duplex) CAATCGGATCGAATTCGATCCGATTG; assay: fluorescence quench binding assay; details: 150 mM KCl; 50 mM Tris HCl pH 7.2, 0.5% CHAPS, 0.05% Triton X-100; apparent; 9 nM DNA
[9] = 50 mM Tris HCl pH 7.2, CHAPS, Triton X-100, highest concentration tested 5 µM

| SMILES | Kd [1] | Kd [2] | ΔTm [3] | ΔTm [4] | binding [5] | Kd [6] | binding [7] | Kd [8] | binding [1, 9] | binding [2, 9] | binding [6, 9] |
| --- | --- | --- | --- | --- | --- | --- | --- | --- | --- | --- | --- |
| C#CCCC1(CCNCCOc2cc(C(=O)Nc3cc(OCCN)c4ccccc4n3)nc(C(=O)Nc3cc(OCCN)c4ccccc4n3)c2)N=N1 | 197 ± 10 nM | 306 ± 6 nM | 14 °C | 25 °C | no | 323 ± 13 nM | yes | > 5,000 nM |  |  |  |
| C#CCCC1(CCC(=O)NCCOCCOCCNCCOc2cc(C(=O)Nc3cc(OCCN)c4ccccc4n3)nc(C(=O)Nc3cc(OCCN)c4ccccc4n3)c2)N=N1 | 439 ± 36 nM | 459 ± 25 nM | 13 °C | 27 °C | no | 669 ± 49 nM | yes | > 5,000 nM |  |  |  |
| C#CCCC1(CCC(=O)NC)N=N1 |  |  | 0 °C | 0 °C |  |  | no |  | no | no | no |
| NCCOc1cc(C(=O)Nc2cc(OCCN)c3ccccc3n2)nc(C(=O)Nc2cc(OCCN)c3ccccc3n2)c1 | 168 ± 8 nM |  |  |  |  |  |  |  |  |  |  |

From article PMC8245323 (2021)
